The target in assay [1] is T1, Erf2 (Saccharomyces cerevisiae, UniProt Q06551).
T1 construct: made in house; host or cells: Saccharomyces cerevisiae strain RJY1842 (erf4Δ/erf4Δ), galactose-induced pESC(-Leu) vector, Ni-NTA purified
In words: BODIPY-C12:0 gel-based assay of steady-state Erf2 autopalmitoylation. Type of assay: biochemical, S. cerevisiae. The protocol: BODIPY®-C12:0-CoA (40 μM final, unless specified otherwise) was added to a 50 μl reaction containing approximately 0.5 μg enzyme (6×HIS-Erf2-(FLAG)-Erf4) and 100 μM inhibitors in 5% DMF in 50 mM sodium phosphate buffer, pH 6.8. The reactions were incubated 10 mins with inhibitor, and then the reaction was initiated with the addition of BODIPY®-C12:0-CoA, and incubated 15 mins at 30° C. The reaction was terminated by the addition of 5× non-reducing protein loading buffer. Each reaction was heated at 65° C. for 3 mins and then subjected to SDS-PAGE (12%). The gel was rinsed three times in ddH2O and visualized on the Typhoon 9410 Variable Mode Imager (GE Healthcare, Piscataway, N.J.) for BODIPY® fluorescence (ex. 488 nm/em. 532 nm) to visualize co-migration of the BODIPY® signal with 6×HIS-Erf2-(FLAG)-Erf4. The amount of 6×HIS-Erf2-(FLAG)-Erf4 was determined empirically using SDS-PAGE analysis under reducing conditions against a standard curve of bovine serum albumin.
To determine if the ten compounds identified in this study were inhibiting autopalmitoylation, and not targeting hydrolysis of the enzyme, steady-state autopalmitoylation was evaluated at 100 μM of each compound compared to 100 μM 2-BP and DMF (vehicle) alone. […] From these screens we observed a decrease in BODIPY® fluorescence at the apparent molecular weight of Erf2. […]

The test system of assay [2] is S. cerevisiae RJY1942 (palmitoylation sensitive). Kind of assay: Growth inhibition assay, palmitoylation-sensitive strain. Type of assay: cell-based. The note with it: for selectivity: EC50 in the control strain RJY1941 as compared to the sensitive strain RJY1942: growth curves, 24 hrs. The protocol: The in vivo effect of the inhibitors on Ras2 palmitoylation was investigated by comparing the growth of S. cerevisiae strains previously described for our complementation assay. Briefly, the cells contain a defective allele of RAS2 that is balanced by an episomal copy of RAS2 linked to URA3. Under these conditions, the yeast strain cannot grow unless the episomal copy of RAS2 is palmitoylated. Varying concentrations of the inhibitors were added to 200 μl volumes of the yeast cells at an OD600 between 0.8 and 1.2 in a 96-well plate format. The OD600 was observed every 30 mins for 24 hrs and EC50 values were determined by graphing rate of growth against concentration of inhibitor for each inhibitor.
To examine the inhibition of Ras palmitoylation in vivo, we utilized two strains of S. cerevisiae. The yeast strain RJY1942 (palmitoylation sensitive) requires Ras2 palmitoylation for viability. The isogenic wild type control yeast strain (RJY1941) is not dependent on Ras2 palmitoylation for viability. The growth of both strains was monitored in the presence (or absence) of our inhibitors every 30 mins for 24 hrs. EC50 values were calculated using GraphPad Prism® (La Jolla, Calif.) to extrapolate the effective concentration of each inhibitor that caused a 50% reduction in growth (FIG. 9). […] Compounds 13, 25, and 2-BP show a modest selectivity for the sensitive strain, RJY1942, over the control strain, RJY1941, resulting in a 2-fold greater EC50 value in the control strain as compared to the sensitive strain (values listed in FIG. 5, right panel). […] Additional work is needed to determine the mechanism of growth inhibition and selectivity of these compounds.

Assay [3] concerns S. cerevisiae RJY1942 (sensitized). In words: Yeast cell spot assay, sensitized strain. Type of assay: cell-based. Conditions: for inhibition at 5 µM: Saccharomyces cerevisiae. How it is done: (§1) Following 24 hrs incubation with varying concentrations of the inhibitors in 1% DMF, S. cerevisiae strains RJY1941 and RJY1942 were then diluted 1/100, and spotted onto SC-Ura plates with 2% glucose. Cytotoxicity data was obtained by detecting the colony growth, following 48 hrs incubation at 30° C., with white light detection on the Bio-Rad Molecular Imager® ChemiDoc™ XRS+ (Hercules, Calif.) and performing densitometry with Bio-Rad ImageLab™ Software (Hercules, Calif.). Triplicate reactions were plated in triplicate. Values were normalized to vehicle control (1% DMF) for each plate, and then the averages of each reaction were compared for statistical analysis.
(§2) We next compared the ability of either strain to grow following the 24 hrs incubation with Compounds 13, 14, or 25. Serial dilutions of RJY1941 and RJY1942 were spotted on agar plates following incubation for 24 hrs with varying inhibitor concentrations. […] Conversely, compound 13 inhibited (100%) the growth of RJY1942 (sensitized) at 5 μM.

For assay [4], the target named is T1, Erf2. The note with it: previously demonstrated [13]; cited from earlier work.
Assay [5] deals with T1, Erf2. In words: Fluorescence-based coupled PAT assay of the rate of Erf2 autopalmitoylation. The format is biochemical, S. cerevisiae. The note with it: for mode of inhibition of Erf2 autopalmitoylation: inhibitor titrations varying inhibitor and palmitoyl-CoA. How it is done:
The HTS application of protein palmitoylation was recently described, but was adjusted for this study. The production of NADH was monitored with a Biotek Mx fluorimeter (Biotek, Winooski, Vt.) using 340 nm excitation/465 nm emission. The 50 μl reaction contained 2 mM 2-Oxoglutarate (α-ketoglutamic acid), 0.25 mM NAD+, 0.2 mM Thiamine Pyrophosphate, 0.5 μg of purified 6×HIS-Erf2-(FLAG)-Erf4, 1 mM EDTA, 1 mM dithiothreitol, 8 mU 2-oxogluarate dehydrogenase (α-ketoglutarate dehydrogenase), 50 mM sodium phosphate, pH 6.8, and 0 100 μM inhibitor in 5% DMF. The reaction was initiated by the addition of 40 μM palmitoyl-CoA and monitored for 30 mins at 30° C. The first 10 mins of the reaction was analyzed to determine the initial rates of CoASH release. The PAT specific activity was determined from a standard curve of NADH production with different CoASH amounts. In these reactions, CoASH was added to the standard PAT reaction mixture (without Erf2/Erf4 complex or palmitoyl-CoA) and the reaction was allowed to proceed to equilibrium before fluorescence was measured.
The identification of palmitoylation inhibitors has been hampered by the lack of assays amenable to high throughput screening applications. Previously, we validated an assay that monitors the rate of autopalmitoylation by measuring the production of CoASH generated from the […] of palmitoyl-CoA [13]. This assay has a Z′-value of 0.87 [13]. […] This assay can be used to monitor autopalmitoylation in real time or as an end point assay, thus providing flexibility when screening small molecule compounds. Compounds with internal fluorescence or that affect the assay components are easily identified and excluded, allowing for the rapid identification of the compounds that inhibit or activate PAT autopalmitoylation activity. […]

Assay [6] has as its system S. cerevisiae RJY1941 (control). Kind of assay: Yeast cell spot assay, control strain. Type of assay: cell-based. The protocol: as §1, §2
[7] abbreviates: 20 μM, spotted after 24 hrs incubation.
The mark [8] stands for this setting: concentrations lower than 20 μM (2.5, 5, 10 μM).
Where [9] appears, read: spotted after 24 hrs incubation, read-out: inhibition of growth of RJY1942 (sensitized).

Read-outs that look alike come from different tables or passages of the source.

T1 sequence (Q06551 whole entry): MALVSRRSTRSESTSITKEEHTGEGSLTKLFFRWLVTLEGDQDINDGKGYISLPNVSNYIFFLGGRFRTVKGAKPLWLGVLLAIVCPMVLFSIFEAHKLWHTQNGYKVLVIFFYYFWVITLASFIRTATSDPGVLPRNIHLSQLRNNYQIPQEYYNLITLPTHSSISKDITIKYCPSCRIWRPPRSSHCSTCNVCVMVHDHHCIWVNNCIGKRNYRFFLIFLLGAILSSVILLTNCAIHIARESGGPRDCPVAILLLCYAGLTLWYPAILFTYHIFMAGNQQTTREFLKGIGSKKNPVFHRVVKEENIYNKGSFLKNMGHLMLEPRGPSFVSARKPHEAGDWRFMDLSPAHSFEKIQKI

Consider `CCCCCCCCCCCCCCC(Br)C(=O)O` (stereo not drawn) [Compound 2-BP, 2-bromopalmitic acid, reference compound], for which the inhibitory constant (Ki) on Erf2 [1] (dose response curves of steady-state autopalmitoylation, read-out: steady-state autopalmitoylation inhibition constant (Ki), gel-based assay) was found to be 79 µM; on Erf2 [5] it was 59 µM. In assay [2] (Saccharomyces cerevisiae, read-out: EC50 (50% reduction in growth)), the EC50 was 12.5 µM. In assay [2], the “selectivity: EC50 in the control strain RJY1941 as compared to the sensitive strain RJY1942” value (from here on “selectivity: EC50”) worked out at 2 fold. The “inhibition of yeast growth in spot assay” value in assay [3] (2.5-20 μM on solid yeast medium, strain not specified) is recorded as “did not inhibit”. The “mode of inhibition of Erf2 autopalmitoylation” value on Erf2 [4] was “uncompetitive or mixed inhibitor”. Further, the figures for the “VMAX for the Palmitoyl-CoA substrate” value on Erf2 [5] (inhibitor at 25 μM), at Erf2 [5] (inhibitor at 50 μM) and at Erf2 [5] (inhibitor at 100 μM) were 160 ± 5 µM, 126 ± 23 µM and 51 ± 8 µM, respectively.

With `CC(C)Cc1ccc(C(C)CN2CCNC[C@@H]2CCCCN2CCN(CC(C)c3ccc(CC(C)C)cc3)[C@@H](Cc3ccc(O)cc3)C2)cc1` (stereo partly drawn) [Compound 13, 4-(((2S)-1-(2-(4-isobutylphenyl)propyl)-4-(4-((2S)-1-(2-(4-isobutylphenyl)propyl)piperazin-2-yl)butyl)piperazin-2-yl)methyl)phenol], at Erf2 [1] (25, 50, 100 μM compound at varying BODIPY-C12-CoA), the “mode of inhibition of steady-state Erf2 autopalmitoylation” value was “acting competitively”. For the same compound, the figures for the “inhibition of growth of RJY1941 (control)” value (from here on “inhibition … (control)”) in assay [6] (setting [7]) and in assay [6] (setting [8]) were “completely inhibited” and “no detectable effect”, respectively. In assay [2], the “selectivity: EC50” value is given as 2 fold. The inhibition at 5 µM in assay [3] (setting [9]) was determined as 100%. Moreover, the “VMAX for the Palmitoyl-CoA substrate” value came out at 243 ± 20 µM on Erf2 [5] (inhibitor at 25 μM), 354 ± 26 µM at Erf2 [5] (inhibitor at 50 μM) and 631 ± 94 µM at Erf2 [5] (inhibitor at 100 μM). The “mode of inhibition of Erf2 autopalmitoylation” value at Erf2 [5] is listed as “Competitively”.

Take `CC(C)Cc1ccc(C(C)CN2CCNC[C@@H]2CCCCN2CCN(CCc3cc(C(F)(F)F)cc(C(F)(F)F)c3)[C@@H](Cc3ccc(O)cc3)C2)cc1` (stereo partly drawn) [Compound 14, 4-(((2S)-1-(3,5-bis(trifluoromethyl)phenethyl)-4-(4-((2S)-1-(2-(4-isobutylphenyl)propyl)piperazin-2-yl)butyl)piperazin-2-yl)methyl)phenol]: the “inhibition … (control)” value is “completely inhibited” in assay [6] (setting [7]) and “no detectable effect” in assay [6] (setting [8]). The inhibition at 5 µM in assay [3] (setting [9]) was around 10%. Besides, the “inhibition of growth of RJY1942 (sensitized)” value in assay [3] (concentrations higher than 5 μM) is given as “total inhibition”.

`CC(C)Cc1ccc(C(C)CN2CCN(CCCC[C@H]3CNCCN3CCc3cc(C(F)(F)F)cc(C(F)(F)F)c3)C[C@@H]2Cc2ccc(O)cc2)cc1` (stereo partly drawn) [Compound 25, 4-(((2S)-4-(4-((S)-1-(3,5-bis(trifluoromethyl)phenethyl)piperazin-2-yl)butyl)-1-(2-(4-isobutylphenyl)propyl)piperazin-2-yl)methyl)phenol]: the “inhibition … (control)” value is “completely inhibited” in assay [6] (setting [7]) and “no detectable effect” in assay [6] (setting [8]). Further, the “selectivity: EC50” value in assay [2] is on record as 2 fold. The inhibition at 5 µM in assay [3] (read-out: inhibition of growth of RJY1942 (sensitized), relative to that observed for compound 13) was around 90%. Further, the “VMAX for the Palmitoyl-CoA substrate” value on Erf2 [5] (inhibitor at 25 μM) stood at 307 ± 30 µM; at Erf2 [5] (inhibitor at 50 μM), 344 ± 34 µM; at Erf2 [5] (inhibitor at 100 μM), 542 ± 60 µM. Also, the “mode of inhibition of Erf2 autopalmitoylation” value at Erf2 [5] is on record as “Competitively”.

(Values after patent US10085981B2, “Protein acyl transferase inhibitors and methods of treatment” (UNIVERSITY OF SOUTH FLORIDA, priority 2015, dated 2018).)
